Test results as given in ChEMBL document CHEMBL1287667, “A targeted low molecular weight near-infrared fluorescent probe for prostate cancer” (Bioorg Med Chem Lett, 2010).
The source made the active and inactive calls. No cut-off for these calls is given here.

Key:
[1] = molecular target: T1, Glutamate carboxypeptidase 2 (Homo sapiens, UniProt Q04609); experiment: Inhibition of PSMA in human LNCaP cells; assay type: cell-based
Target sequence in this assay (Q04609 whole entry): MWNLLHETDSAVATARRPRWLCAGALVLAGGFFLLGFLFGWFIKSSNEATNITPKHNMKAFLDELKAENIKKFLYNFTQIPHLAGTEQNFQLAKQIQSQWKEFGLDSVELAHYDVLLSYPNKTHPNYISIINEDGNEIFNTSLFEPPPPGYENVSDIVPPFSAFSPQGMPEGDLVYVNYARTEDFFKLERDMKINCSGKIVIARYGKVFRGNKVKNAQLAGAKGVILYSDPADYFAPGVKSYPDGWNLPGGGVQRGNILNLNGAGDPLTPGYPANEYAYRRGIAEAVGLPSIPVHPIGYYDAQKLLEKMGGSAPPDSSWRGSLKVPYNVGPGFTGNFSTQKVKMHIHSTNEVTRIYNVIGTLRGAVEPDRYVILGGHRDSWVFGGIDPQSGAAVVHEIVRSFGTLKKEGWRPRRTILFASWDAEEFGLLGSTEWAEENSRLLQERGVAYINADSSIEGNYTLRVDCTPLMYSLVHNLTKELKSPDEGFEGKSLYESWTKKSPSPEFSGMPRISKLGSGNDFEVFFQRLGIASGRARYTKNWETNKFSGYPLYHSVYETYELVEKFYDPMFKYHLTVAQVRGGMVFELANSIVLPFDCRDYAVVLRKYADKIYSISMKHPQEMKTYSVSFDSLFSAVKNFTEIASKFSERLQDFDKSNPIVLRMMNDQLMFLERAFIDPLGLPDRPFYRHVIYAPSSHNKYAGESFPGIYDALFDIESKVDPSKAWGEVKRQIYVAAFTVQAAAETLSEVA

[2] = molecular target: T1, Glutamate carboxypeptidase 2; experiment: Reversible inhibition of purified PSMA at 10 times IC50 after 25 mins measured after 100 fold dilution
Target sequence in this assay (Q04609 whole entry, looked up): as the sequence (Q04609 whole entry) above

IC50 [1] [nM] | Activity [2] | SMILES
0.55 | Active | CCN1/C(=C/C=C/C=C/C2=[N+](CCCCCC(=O)N[C@@H](CCC(=O)N[C@@H](COP(=O)([O-])O[C@@H](CCC(=O)O)C(=O)O)C(=O)O)C(=O)O)c3ccc4c(S(=O)(=O)O)cc(S(=O)(=O)O)cc4c3C2(C)C)C(C)(C)c2c1ccc1c(S(=O)(=O)O)cc(S(=O)(=O)O)cc21
144 | Active | N[C@@H](CCC(=O)N[C@@H](COP(=O)(O)O[C@@H](CCC(=O)O)C(=O)O)C(=O)O)C(=O)O
6100 |  | CCN1/C(=C/C=C/C=C/C2=[N+](CCCCCC(=O)[O-])c3ccc4c(S(=O)(=O)O)cc(S(=O)(=O)O)cc4c3C2(C)C)C(C)(C)c2c1ccc1c(S(=O)(=O)O)cc(S(=O)(=O)O)cc21
